Experiments:
[1] = test system: tumor endothelial cells; details: DAC and TSA together, Hellebrekers, Melotte et al. 2007; cited from earlier work
[2] = test system: NDRG4 mRNA in CRC cell lines HCT116 and RKO; assay: NDRG4 reexpression following inhibition of DNA methyltransferases (quantitative RT-PCR); format: cell-based, human; details: 1 μM DAC
Method: CRC cell lines HT29, SW480, Caco2, Colo205, RKO, LS174T, HCT116 and SW480 were cultured in DMEM (Invitrogen) supplemented with 10% heat-inactivated fetal calf serum (Hyclone). To investigate reexpression of NDRG4 following inhibition of DNA methyltransferases, HCT116 and RKO were treated with 1 μM DAC (Sigma).
Total RNA from cell lines, normal mucosa and tumor tissue was isolated using the Rneasy Mini kit (Qiagen) following the manufacturers instructions. Possible genomic DNA contaminations were removed by DNAse treatment with the RNase-free DNAse set (Qiagen). cDNA synthesis using the Iscript cDNA synthesis kit (Bio-Rad) was performed. Quantitative real-time (RT-PCR) was performed using SYBR Green PCR master mix (Applied Biosystems, Nieuwekerk a/d IJssel, The Netherlands). Realtime RT-PCR mixes were composed of 1× iQ SYBR Green Supermix (Bio-Rad), 400 nM of the forward (SEQ ID NO: 3 5′-[…]-3′) and reverse (SEQ ID NO: 4 5′-[…]-3′) primer and cDNA corresponding to 30 ng total RNA per reaction. As standard control, primers targeted against cyclophilin A were used. Reactions were run using the iCycler (Bio-Rad) for 40 cycles at a Tm of 60° C. The comparative Ct method was used to calculate differences in mRNA expression. […] Next, the fold difference in expression was calculated as 2-^[delta][delta]Ct, with [delta][delta]Ct=[delta]Ct,sample1-[delta]Ct,control. […]

[3] = test system: NDRG1 expression in cancer cells; details: Guan et al. 2000, Bandyopadhyay et al. 2004; cited from earlier work
[4] = test system: NDRG4 expression in RKO and HCT116 cell lines; assay: NDRG4 re-expression by real-time RT-PCR after treatment with DAC and TSA; format: cell-based, human; details: combined treatment, 1 μM DAC and 300 nM TSA, cyclophilin reference gene
Method: Colon cancer cell lines LS174T, HCT116, HT29, RKO, CaCo2, Colo205, SW48 and SW480 were used for MSP, bisulfite sequencing and real time (reexpression) RT-PCR ([…] and 300 nM TSA).
Total RNA isolation was isolated by use of the Rneasy Mini kit (Qiagen) cDNA synthesis using the Iscript cDNA synthesis kit (Bio-Rad). Quantitative real-time reverse transcription-PCR was done using SYBR Green PCR Master Mix (Applied Biosystems, Nieuwekerk a/d IJssel, the Netherlands). Primers and PCR conditions are specified in Table 21.
Expression of the NDRG4 gene was determined by real-time reverse-transcription PCR (RT-PCR). […] Relative expression of NDRG4 after treatment with DAC and TSA was compared to untreated cell lines. Cyclophilin was used as a reference gene for expression normalisation.

[5] = test system: methylated gene promoters in plasma DNA; assay: Real-time MSP on plasma DNA; set-up: species or system human; details: for % Specificity (all 59 controls), plasma set 1: plasma training set 1
Method: 10 ml of blood was obtained per individual using EDTA Vacutainer™ tubes. Individuals with no suspicious findings, adenomas or carcinomas based on colonoscopy were enrolled in the present study. Within 4 hrs from the blood drawing, the plasma fraction was separated from the cell fraction by centrifugation at 1500 g for 15 min (4° C.). The plasma was transferred to new tubes and once again centrifuged (1500 g, 15 min, 4° C.), after which the supernatant was transferred to new tubes and stored at −80° C. until further use. Samples were shipped on dry ice.
DNA isolation from plasma samples (1.2 to 6 ml) was performed using an upscaled phenol-chloroform DNA isolation method using the 15 ml of Heavy Phase lock Gel tubes (PLG tubes) (Eppendorf, cat #0032 005.152) or alternatively the ChargeSwitch® gDNA 1 ml serum kit from Invitrogen (cat #CS11040).
Plasma samples were thawed and 1/10 volume of 10× buffer (240 mM EDTA (pH=8.0), 750 mM NaCl), 1/10 volume of 10% SDS and 5 μl of Proteinase K (20 mg/ml stock solution) per 1 ml of sample (e.g. 15 μl for 3 ml of sample) was added to each plasma sample. This mixture was incubated overnight at 48° C. at constant shaking (200 RPM).
Subsequently the PLG tube was centrifuged at 2500 RCF for 3 min, sample mixture and approximately the same volume of phenol/chloroform (Invitrogen, cat #15593049) were added to it. This solution was briefly vortexed, mixed for 10 min using a tube rocker at room temperature and centrifuged for 5 min at 2500 RCF. In case the retrieved sample volume was ≤4 ml, an equal volume of phenol/chloroform was added. The upper aqueous layer was phenol/chloroform-treated for a second time.
DNA was precipated from the upper aqueous layer by adding 5 μl glycogen, 1/10 volume of 7.5 M Ammonium Acetate and 2-2.5 volumes of cold (−20° C.) 100% ethanol. Tubes were gently inverted and incubated at −20° C. for at least 1 h, followed by a centrifugation step at 17000 RCF for 30 min (4° C.). Ethanol was carefully removed by pipetting. Pellets were washed with 2 ml freshly prepared 70% ethanol, vortexed gently and submitted to a centrifugation step at 17000 RCF for 15 min at 4° C. After careful removal of the remaining ethanol, pellets were air dried and resuspended in 45 μl of LoTE pH 8.0. The isolated DNA is stored at −80° C. until further processing.
The complete content of DNA isolated in above procedure was subjected to sodium bisulfite treatment (BT) using the EZ-96 DNA Methylation kit from Zymo Research (Cat #D5003) performed on a pipetting robot (Tecan Freedom EVOII, Roma, Liha, Mca, Te-Vacs). Briefly, 45 μl of plasma DNA sample was mixed with 5 μl of M-Dilution Buffer (provided in kit) and incubated at 37° C. for 15 min shaking at 1100 RPM. This mixture was further incubated with 100 μl of diluted CT conversion reagent (provided in kit) shaking at 70° C. for 3 hours (protected from light). Subsequently the modified DNA was desalted and desulfonated according to manufacturer's instructions and eluted in either 40 μl or 20 μl of Tris-HCl 1 mM pH8.0, depending on the applied concentration procedure. The eluted material was stored at −80° C. until further processing.
2.4 μl of the modified DNA was added to a PCR mix (total volume 12 μl) containing home-made buffer solution (final concentrations are summarized: 16.6 mM (NH4)2SO4, 67 mM Tris (pH 8.8), 6.7 mM MgCl2, 10 mM β-mercaptoethanol), dNTPs (5 mM; Amersham Biosciences cat #27-2035-02), methylation specific forward primer (6 ng), methylation specific reverse primer (18 ng), molecular beacon (0.16 μM) and Jumpstart DNA Taq polymerase (0.4 units; Sigma Cat #D9307).
A standard curve was included (9.6×10^5—9.6 copies) to determine copy numbers of unknown samples by interpolation of their Ct values to the standard curve.
DNA was isolated following the upscaled phenol-chloroform procedure; subsequently the whole DNA sample was modified as described above.

[6] = test system: methylated gene promoters in FFPE tissue DNA; assay: Real-time MSP on colon tissue samples; set-up: species or system human
Method: Real-time MSP was applied on a 7900HT fast real-time PCR system (Applied Biosystems). 2.4 μl of the modified DNA (equivalent to 2.5 μg unconverted DNA) was added to a PCR mix (total volume 12 μl) containing buffer (16.6 mM (NH4)2SO4, 67 mM Tris (pH 8.8), 6.7 mM MgCl2, 10 mM β-mercaptoethanol), dNTPs (5 mM), forward primer (6 ng), reverse primer (18 ng), molecular beacon (0.16 μM), BSA (0.1 μg), and Jumpstart DNA Taq polymerase (0.4 units; Sigma Aldrich). Cycle program used was as follows: 5 minutes 95° C., followed by 45 cycles of 30 seconds 95° C., 30 seconds 57° C. (51° C. for APC), and 30 seconds 72° C., followed by 5 minutes 72° C. A standard curve (2×106—20 copies) was included to determine copy numbers of unknown samples by interpolation of their Ct values to the standard curve.
Marker selection in colon tissue: Based on re-expression, 224 different gene assays representing 145 gene promotors were tested on the Base5 methylation profiling platform (data not shown, see reference 1 for details). The 37 most differentially methylated gene sequences assessing 29 gene promoters were validated on retrospectively collected tumors from 65 colorectal cancer patients (all stages) and 74 distant resection ends (histopathologically normal) using real-time MSP. Several markers reliably detected CRC in those tissue samples (data not shown). The results were confirmed on an independent test set containing 39 tissue controls (non-cancerous), 34 carcinomas and 16 adenomas. Several combinations of the tested markers reliably detected CRC with high specificity and sensitivity.
The ten best performing markers GATA5, GATA4, SFRP1, SFRP2, APC, MGMT, NDRG4, OSMR, JPH3 and ADAM23 were validated with primer sets and beacon probes as specified in Table 24. In addition to the colon test genes, the independent reference gene β-Actin (ACT) was also measured. The ratios between the colon test genes and ACT were calculated, and are the test result of the assay.
Marker candidates identified by re-expression were screened using 37 real-time methylation specific PCR (real-time MSP) assays. These assays were used to assess the methylation status of 29 gene promoters in 293 formalin-fixed paraffin-embedded (FFPE) tissue samples collected from various clinics. Samples included 99 carcinomas of various stages, 16 adenomas, 63 samples from patients with cancer other than CRC (20 breast [stages I-III], 22 bladder [stages I-III], 21 lung [stages I and II]), 39 samples from patients with no evidence of cancer and 76 distant resection ends (histopathologically normal) from CRC patients. These samples were divided into training and independent test sets, and used to select the gene methylation assays best able to discriminate between cancerous and non-cancerous samples. The training set included retrospectively collected tumors from 65 colorectal cancer patients (all stages) and 74 distant resection ends. Using the 10 best performing genes the results were confirmed on an independent test set containing 59 samples from patients with cancer other than CRC, 39 non-cancerous controls and 50 cancer cases (34 carcinomas and 16 adenomas).
The individual performance of the 10 best performing tissue markers OSMR, SFRP1, GATA4, SFRP2, NDRG4, ADAM23, GATA5, MGMT, APC and JPH3 is shown in FIG. 7, when the analytical cut-off was set to give 100% specificity, except for JPH3 where a specificity of 95% was obtained (based on the 39 non-cancerous controls). In addition to the colon test genes, the independent reference gene β-Actin (ACT) was also measured. The ratios between the colon test genes and ACT were calculated, and are the test result of the assay.

[7] = 16 adenoma tissue samples vs 39 controls
[8] = 34 carcinoma tissue samples vs 39 controls

Nc1ncn([C@H]2C[C@H](O)[C@@H](CO)O2)c(=O)n1 [DAC, 5-aza-2′-deoxycytidine]
81 genes downregulated in tumor endothelial cells after DAC and TSA treatment [1]: reexpressed
Endogenous NDRG4 mRNA levels after treatment with DAC [2]: significant increased
Expression of NDRG1 after DAC treatment [3]: upregulated
Relative expression of NDRG4 after treatment with DAC and TSA compared to untreated cell lines [4]: reactivation of NDRG4 expression

CC(/C=C/C(=O)NO)=C\[C@@H](C)C(=O)c1ccc(N(C)C)cc1 [TSA, trichostatin A]
81 genes downregulated in tumor endothelial cells after DAC and TSA treatment [1]: reexpressed
Relative expression of NDRG4 after treatment with DAC and TSA compared to untreated cell lines [4]: reactivation of NDRG4 expression

OSMR (DNA TTTGGTCGGGGTAGGAGTAGC; listed as DNA, chemistry not given here)
% Specificity (all 59 controls), plasma set 1 [5]: 100%
% Sensitivity adenomas plasma set 2: increased plasma equivalent of DNA per real-time MSP assay ([5]; plasma training set 2): 2%
% Specificity (all 89 controls), plasma set 2: increased plasma equivalent of DNA per real-time MSP assay ([5]; plasma training set 2): 99%

SFRP2 (DNA GGGTCGGAGTTTTTCGGAGTTGCGC; listed as DNA, chemistry not given here)
Sensitivity [6, 7]: 81%
Specificity [6, 7]: 100%
Sensitivity [6, 8]: 68%
Specificity [6, 8]: 100%
Specificity (%) ([6]; 50 cases (adenoma + carcinoma) vs 39 controls, tissue): 100%
Sensitivity (%) ([6]; 50 cases (adenoma + carcinoma) vs 39 controls, tissue, first cut off ratio): 72%
Sensitivity (%) ([6]; 50 cases (adenoma + carcinoma) vs 39 controls, tissue, second cut off ratio, between ( )): (84) %
% Specificity (all 59 controls), plasma set 1 [5]: 97%

Source: patent US12215389B2, “Compositions for detecting epigenetic modifications” (EXACT SCIENCES CORPORATION, priority 2007, dated 2025)
